One data set addresses KRAS WT (Homo sapiens, UniProt P01116). As to the kind of experiment: KRAS WT biochemical assay (Table 1, no method of its own). Format: binding.
The conditions of data set [1]: rat, plasma.

Each structure is given as a SMILES string.

Chain of KRAS WT (P01116 1-188 isoform P01116-2): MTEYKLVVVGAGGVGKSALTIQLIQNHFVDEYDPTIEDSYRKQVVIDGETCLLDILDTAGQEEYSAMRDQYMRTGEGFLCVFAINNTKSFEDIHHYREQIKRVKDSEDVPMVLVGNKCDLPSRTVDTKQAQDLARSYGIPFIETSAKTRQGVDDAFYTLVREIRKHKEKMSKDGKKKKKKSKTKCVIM

For the compound `C#Cc1c(F)ccc2cc(O)cc(-c3nc4c5c(nc(OCC6(CN7CCC(=C(F)F)CC7)CC6)nc5c3F)N3C[C@H]5CC[C@H](N5)[C@H]3CO4)c12` [Example 1-1, 4-((5aS,6S,9R)-12-((1-((4-(difluoromethylene)piperidin-1-yl)methyl)cyclopropyl)methoxy)-1-fluoro-5a,6,7,8,9,10-hexahydro-5H-4-oxa-3,10a,11,13,14-pentaaza-6,9-methylenenaphtho[1,8-ab]heptalene-2-yl)-5-ethynyl-6-fluoronaphthalen-2-ol], the IC50 on KRAS WT was determined as 79 nM.

With `[2H]C([2H])([2H])[C@@H]1Oc2nc(-c3cc(O)cc4ccc(F)c(C#C)c34)c(F)c3nc(OCC4(CN5CCC(=C(F)F)CC5)CC4)nc(c23)N2C[C@H]3CC[C@H](N3)[C@@H]12` [Example 161, 4-((5S,5aS,6S,9R)-12-((1-((4-(difluoromethylene)piperidin-1-yl)methyl)cyclopropyl)methoxy)-1-fluoro-5-(methyl-d3)-5a,6,7,8,9,10-hexahydro-5H-4-oxa-3,10a,11,13,14-pentaaza-6,9-methylnaphtho[1,8-ab]hept-2-yl)-5-ethynyl-6-fluoronaphthalen-2-ol], the “Remaining rate (%) 0 min” value in data set [1] (0 h) was 100.00%. The “Remaining rate (%) 15 min” value in data set [1] (0.25 h) is recorded as 94.50%. Moreover, in data set [1] (0.5 h), the “Remaining rate (%) 30 min” value is listed as 98.84%. Moreover, the “Remaining rate (%) 60 min” value in data set [1] (1 h) is 98.63%. In data set [1] (2 h), the “Remaining rate (%) 120 min” value is recorded as 95.03%.

In general, IC50 refers to the point on the concentration scale where inhibition reaches its midpoint.

(Values after patent EP4635958A1, “PYRIMIDINE-CONTAINING POLYCYCLIC DERIVATIVE INHIBITOR, AND PREPARATION METHOD THEREFOR AND USE THEREOF” (Shanghai Hansoh Biomedical Co., Ltd., priority 2022, dated 2024).)
